From patent US20050176826A1, “Use of asc-1 inhibitors to treat neurological and psychiatric disorders” (H. Lundbeck A/S, priority 2002, published 2005)

How the values were obtained:
[1] = biological target: T1, D-serine-sensitive Na+-independent transporter in rat cortical membranes (Rattus norvegicus, UniProt P63116); test: Na+-independent [3H]D-serine uptake into rat cortical membranes (synaptosomes); type: biochemical
T1 construct: from tissue; host or cells: rat cerebral cortex membranes (P2 synaptosomes), male Wistar rats
T1 sequence (P63116 1-530): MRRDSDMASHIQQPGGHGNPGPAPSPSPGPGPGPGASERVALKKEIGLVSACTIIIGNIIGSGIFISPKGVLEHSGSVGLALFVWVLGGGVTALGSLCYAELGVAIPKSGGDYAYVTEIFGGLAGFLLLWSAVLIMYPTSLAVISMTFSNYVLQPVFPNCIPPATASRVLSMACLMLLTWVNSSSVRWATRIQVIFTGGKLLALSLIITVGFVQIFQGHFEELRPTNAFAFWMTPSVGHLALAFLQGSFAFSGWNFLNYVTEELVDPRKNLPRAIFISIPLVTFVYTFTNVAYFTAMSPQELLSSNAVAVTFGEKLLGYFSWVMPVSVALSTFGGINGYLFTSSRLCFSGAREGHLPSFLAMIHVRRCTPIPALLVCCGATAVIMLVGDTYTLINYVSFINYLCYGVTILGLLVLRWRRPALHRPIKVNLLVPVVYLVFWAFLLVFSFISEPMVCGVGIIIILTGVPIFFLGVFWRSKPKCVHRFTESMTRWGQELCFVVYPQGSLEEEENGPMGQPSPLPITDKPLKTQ
T1 sequence (Q794F9 1-527 partner): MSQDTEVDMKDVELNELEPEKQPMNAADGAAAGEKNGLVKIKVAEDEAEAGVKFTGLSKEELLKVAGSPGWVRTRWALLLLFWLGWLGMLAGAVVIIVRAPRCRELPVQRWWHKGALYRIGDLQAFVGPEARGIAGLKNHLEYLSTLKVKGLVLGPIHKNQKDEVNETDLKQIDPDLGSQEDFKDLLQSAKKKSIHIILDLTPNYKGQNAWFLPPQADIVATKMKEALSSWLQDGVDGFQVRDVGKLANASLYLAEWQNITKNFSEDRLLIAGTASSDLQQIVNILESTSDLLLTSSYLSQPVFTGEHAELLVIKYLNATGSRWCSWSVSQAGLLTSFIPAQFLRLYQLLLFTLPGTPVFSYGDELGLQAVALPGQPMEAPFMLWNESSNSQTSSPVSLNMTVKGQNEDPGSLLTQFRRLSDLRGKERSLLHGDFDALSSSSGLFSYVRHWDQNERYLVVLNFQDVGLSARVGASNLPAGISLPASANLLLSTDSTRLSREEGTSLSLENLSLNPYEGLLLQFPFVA
Procedure: Into cortical membranes: Cortex from male Wistar rats (150-200 g) was homogenized in 0.40 M sucrose and centrifuged at 1000×g for 10 min. […] Test compounds and tissue (1 mg orig. tissue/well) were added to 96 well plates and incubated with [^3H]-D-serine (specific activity=26.8 Ci/mmol, PerkinElmer, Cambridge, U.K.) (100 nM final concentration) for 5 min at 25° C. Samples were filtered on Unifilter GF/B glass fiber (Packard Biosciences, Meriden, Conn., USA) and washed with 3×0.25 mL assay buffer. Measurements of [^3H]-D-serine uptake into whole HEK293 cells expressing human asc-1 were performed in 96 well plates with similar conditions except that the cells were incubated for 15 min with radioligand and washed by dipping twice in cold assay buffer following incubation with radioligand. Accumulated radioactivity was extracted from the cells by adding 200 μL scintillation fluid/well (Ultima Gold, Packard Biosciences) and the plates were counted in a Microplates Scintillation Counter (Packard Biosciences). The D-serine uptake in samples containing test compounds was compared to controls without added compound or controls where transport via the asc-1 was inhibited by addition of e.g. 30 mM L-alanine.

[2] = test system: rat brain (ventral hippocampus) extracellular amino acids; test: Microdialysis in rat ventral hippocampus, amino acid levels in dialysate; type: in vivo; conditions: 1 mM infused via microdialysis probe into ventral hippocampus, 140 min (FIG. 1)
Description: Rats (male wistar) were anaesthetized and intracerebral guide cannulas (CMA/12) were stereotaxically implanted into the brain positioning the dialysis probe tip in the ventral hippocampus (co-ordinates 5.6 mm […] to bregma, lateral −5.0 mm, 7.0 mm ventral to dura). The rats were allowed to recover from surgery for at least 2 days. On the day of the experiment, a microdialysis probe (CMA/12, 0.5 mm diameter, 3 mm length) was inserted through the guide cannula. The probes were connected via a dual channel swivel to a microinjection pump. Perfusion of the microdialysis probe with filtered Ringer solution (145 mM NaCl, 3 mM KCl, 1 mM MgCl2, 1.2 mM CaCl2) was begun shortly before insertion of the probe into the brain and continued for the duration of the experiment at a constant flow of 1 μl/min. After 165 min of stabilization, the experiments were initiated. A 20 min sampling regime was used throughout the experimental period. Time points were corrected for lag time of the perfusate from the microdialysis site to the probe outlet. The compound, S-methyl-L-cysteine (Sigma-Aldrich, St. Louis, USA) was dissolved in filtered Ringer solution (in 1 mM concentration) and was locally infused into the ventral hippocampus by reverse dialysis for 140 min (FIG. 1). After the experiments, the rats were sacrificed by decapitation. The brains were removed, frozen and sectioned (20 μm), and the position of the probes was verified. The concentrations of amino acids in the dialysates were analyzed by means of HPLC with fluorescence detection after precolumn online derivatisation with o-phatalaldehyde. The system consisted of a Hypersil AA-ODS column (5 μm, 2.1×200 mm, Agilent) with a Agilent 1100 fluoresence detector (excitation, 266-340 nm; emission, 305-340 nm). Mobile phases consisted of A: 20 mM sodium acetate, 0.018% triethylamine, 0.3% tetrahydrofuran, pH 7.2. B: 20 mM sodium acetate, 40% acetonitrile and 40% methanol, pH 7.2. The oven temperature was set at 40° C. and flow rate was 0.45 ml/min. Data were collected and analysed using ChemStation software (Agilent) after calibration with a range of standard amino acid solutions (0.1-10 μM). The mean value of 3 consecutive samples immediately preceding compound administration served as the basal level for each experiment and data were converted to percentage of basal (mean basal pre-injection values normalized to 100%).

System A transporters = conditions: at 5 mM; cultured rat hepatocytes; cited from earlier work

Which Ki [1] does the source give for CSCC(N)C(=O)O (stereo in doubt) [(S)-methyl-L-cysteine] here?
Its Ki is 6.6 ± 1.8 µM.

And the “level of alanine in rat brain dialysate” value [2]?
The value was “marked increase”.

And the “level of aspartate in rat brain dialysate” value [2]?
The value was “not affected”.

And the “level of glutamate in rat brain dialysate” value [2]?
The value was “not affected”.

What about the “level of glycine in rat brain dialysate” value [2] of the same molecule?
The value was “marked increase”.

What about the “level of serine in rat brain dialysate” value [2] of the same molecule?
The value was “marked increase”.

What about the “level of threonine in rat brain dialysate” value [2] of the same molecule?
The value was “marked increase”.

And the “inhibition of System A transporters ([3H]AIB transport)” value (System A transporters)?
The value was 81%.
